The text below walks through data of patent US9090596B2, “Disubstituted 3,4-diamino-3-cyclobutene-1,2-dione compounds for use in the treatment of chemokine-mediated pathologies” (GALDERMA RESEARCH & DEVELOPMENT, priority 2011, dated 2015).

A word on the IC50: it is the point on the concentration scale where inhibition reaches its midpoint. A low value points to greater potency. Usually melting point stands for the temperature of the solid-liquid transition.

The target of data set [1] is CXCR1 receptor (Homo sapiens (Human), UniProt P25024). Nature of the data set: β-arrestin 2 recruitment test, U2OS hCXCR1 β-arrestin cells stimulated with CXCL8. It is filed as cell-based. The settings on record: CXCL8 stimulation. Here is the method:
(§1) The in vitro affinity of the compounds of the present invention for the CXCR1 and CXCR2 receptors was determined on a functional test of the β-arrestin recruitment type after receptor activation.
(§2) β-Arrestin Recruitment Assay:
(§3) “PathHunter HEK293-CXCR2” or “U2OS hCXCR1 β-arrestin” cells (DiscoveRx Corporation) were seeded overnight at 10 000 cells/well (384-well format) in 20 μl of Opti MEM I medium. A preincubation with the antagonist or the vehicle for 30 min at 37° C. and 5% CO2 was followed by 60 minutes of stimulation with CXCL8 at 37° C. and 5% CO2. The cells were then placed at ambient temperature for 30 minutes. The PathHunter detection reagent (DiscoveRx Corporation) was added. […] The data were analyzed by means of a non-linear curve procedure using the XLFit4 exploitation software (IDBS) and the IC50 values were determined.

Data set [2] deals with CXCR2 receptor (Homo sapiens (Human), UniProt P25025). In words: β-arrestin 2 recruitment test, PathHunter HEK293-CXCR2 cells stimulated with CXCL8. It is filed as cell-based. The settings on record: CXCL8 stimulation. The procedure: as §1, §2, §3
Chain of CXCR2 receptor (P25025 whole entry): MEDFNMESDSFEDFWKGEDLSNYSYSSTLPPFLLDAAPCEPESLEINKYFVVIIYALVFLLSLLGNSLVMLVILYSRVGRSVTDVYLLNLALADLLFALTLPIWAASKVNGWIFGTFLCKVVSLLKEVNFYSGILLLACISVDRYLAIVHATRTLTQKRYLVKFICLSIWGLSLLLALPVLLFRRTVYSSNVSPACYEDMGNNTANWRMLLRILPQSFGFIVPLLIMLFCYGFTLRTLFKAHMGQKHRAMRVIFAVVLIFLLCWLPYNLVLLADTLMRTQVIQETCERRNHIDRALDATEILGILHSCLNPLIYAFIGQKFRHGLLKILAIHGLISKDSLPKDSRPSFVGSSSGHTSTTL
(In general: Arrestin recruitment assays detect the binding of arrestin to an activated receptor.)

The structures appear in SMILES notation.

Chain of CXCR1 receptor (P25024 whole entry): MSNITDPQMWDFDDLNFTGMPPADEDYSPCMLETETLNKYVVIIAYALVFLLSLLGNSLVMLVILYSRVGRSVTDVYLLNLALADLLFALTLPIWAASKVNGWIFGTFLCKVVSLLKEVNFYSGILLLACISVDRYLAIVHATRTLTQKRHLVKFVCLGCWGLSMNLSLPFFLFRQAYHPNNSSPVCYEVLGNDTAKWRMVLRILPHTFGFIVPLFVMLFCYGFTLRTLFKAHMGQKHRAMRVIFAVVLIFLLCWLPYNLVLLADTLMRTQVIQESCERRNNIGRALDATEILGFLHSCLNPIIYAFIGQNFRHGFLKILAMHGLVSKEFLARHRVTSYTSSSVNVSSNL

Turning to `COc1cccc(C(Nc2c(Nc3cccc(C(=O)N(C)C)c3O)c(=O)c2=O)C2(C)COC2)c1` (stereo not shown) [Example 28, 3-(2-{[(3-methyloxetan-3-yl)-(3-methoxyphenyl)methyl]-amino}-3,4-dioxocyclobut-1-enylamino)-2-hydroxy-N,N-dimethylbenzamide], the results for the IC50 in data set [1] and in data set [2] were 5.54 µM and 0.475 µM, respectively. As for `Cc1ccc(C(Nc2c(Nc3cccc(C(=O)N4CCOCC4)c3O)c(=O)c2=O)C2(C)COC2)o1` (stereo not shown) [Example 15, 3-[2-hydroxy-3-(morpholine-4-carbonyl)phenylamino]-4-{[(5-methylfuran-2-yl)-(3-methyloxetan-3-yl)methyl]amino}cyclobut-3-ene-1,2-dione], the values for the IC50 in data set [1] and in data set [2] were 3.17 µM and 0.626 µM, respectively. `Cc1ccc(C(Nc2c(Nc3cccc(C(=O)N(C)C)c3O)c(=O)c2=O)C2(C)CN(C(=O)OC(C)(C)C)C2)o1` (stereo not shown) [Example 26, tert-butyl 3-[[2-(3-dimethylcarbamoyl-2-hydroxyphenylamino)-3,4-dioxo-cyclobut-1-enylamino]-(5-methylfuran-2-yl)methyl]-3-methylazetidine-1-carboxylate]: the melting point is 162 to 165 °C. Take `COc1ccc(Nc2c(NC(c3ccc(C)o3)C3(C)COC3)c(=O)c2=O)c(O)n1` (stereo not shown) [Example 39, 3-(2-hydroxy-6-mèthoxypyridin-3-ylamino)-4-{[(5-methylfuran-2-yl)-(3-methyloxetan-3-yl)methyl]amino}cyclobut-3-ene-1,2-dione]: the IC50 was found to be 10 µM in data set [1] and 1.03 µM in data set [2]. The matching figures for `Cc1ccc(C(Nc2c(Nc3cccc(C(=O)C(C)C)c3O)c(=O)c2=O)C2(C)COC2)o1` (stereo not shown) [Example 12, 3-(2-hydroxy-3-isobutyrylphenylamino)-4-{[(5-methylfuran-2-yl)-(3-methyloxetan-3-yl)methyl]amino}cyclobut-3-ene-1,2-dione]: 10 µM and 0.1 µM. Regarding `Cc1ccc(C(Nc2c(Nc3cccc(C(=O)N(C)C)c3O)c(=O)c2=O)C2(C)COC2)o1` (stereo not shown) [Example 1, 2-hydroxy-N,N-dimethyl-3-(2-{[(5-methylfuran-2-yl)-(3-methyloxetan-3-yl)methyl]amino}-3,4-dioxocyclobut-1-enylamino)benzamide], the melting point lay in the range of 196 to 198 °C. For `COC(=O)[C@@H]1CCCN1C(=O)c1cccc(Nc2c(N[C@@H](c3ccc(C)o3)C3(C)COC3)c(=O)c2=O)c1O` [Example 9, methyl (S)-1-[2-hydroxy-3-(2-{[(R)-(5-methylfuran-2-yl)-(3-methyloxetan-3-yl)methyl]amino}-3,4-dioxocyclobut-1-enylamino)benzoyl]pyrrolidine-2-carboxylate], the concentration for half-maximal inhibition (IC50) in data set [1] is 0.666 µM; in data set [2], 0.06 µM. As to `Cc1ccc(C(Nc2c(Nc3cccc(C(=O)N4CC[C@@H](O)C4)c3O)c(=O)c2=O)C2(C)COC2)o1` (stereo partly drawn) [Example 5, 3-[2-hydroxy-3-((R)-3-hydroxypyrrolidine-1-carbonyl)phenylamino]-4-{[(5-methylfuran-2-yl)-(3-methyloxetan-3-yl)methyl]amino}cyclobut-3-ene-1,2-dione], the IC50 turned out to be 2.62 µM in data set [1] and 0.341 µM in data set [2]. Taken in the same sequence, the figures for `Cc1coc(C(Nc2c(Nc3cccc(C(=O)N(C)C)c3O)c(=O)c2=O)C2(C)COC2)c1` (stereo not shown) [Example 37a, 2-hydroxy-N,N-dimethyl-3-(2-{[(4-methylfuran-2-yl)-(3-methyloxetan-3-yl)methyl]amino}-3,4-dioxocyclobut-1-enylamino)benzamide] were 0.827 µM and 0.032 µM. Regarding `Cc1ccc(C(Nc2c(Nc3cccn(C)c3=O)c(=O)c2=O)C2(C)COC2)o1` (stereo not shown) [Example 19, 3-{[(5-methylfuran-2-yl)-(3-methyloxetan-3-yl)methyl]amino}-4-(1-methyl-2-oxo-1,2-dihydropyridin-3-ylamino)cyclobut-3-ene-1,2-dione], the figures for the IC50 in data set [1] and in data set [2] were 4.96 µM and 0.394 µM, respectively. Take `CC(C)c1coc(C(Nc2c(Nc3cccc(C(=O)N(C)C)c3O)c(=O)c2=O)C2(C)COC2)c1` (stereo not shown) [Example 38, 2-hydroxy-N,N-dimethyl-3-(2-{[(4-isopropylfuran-2-yl)-(3-methyloxetan-3-yl)methyl]amino}-3,4-dioxocyclobut-1-enylamino)benzamide]: the IC50 amounted to 0.322 µM in data set [1] and 0.025 µM in data set [2].

Consider `CN(C)C(=O)c1cccc(Nc2c(NC(c3cccs3)C3(C)COC3)c(=O)c2=O)c1O` (stereo not shown) [Example 34, 2-hydroxy-N,N-dimethyl-3-(2-{[(3-methyloxetan-3-yl)thiophen-2-ylmethyl]amino}-3,4-dioxocyclobut-1-enylamino)benzamide], for which the IC50 amounted to 1.61 µM in data set [1] and 0.106 µM in data set [2]. On to `Cc1ccoc1C(Nc1c(Nc2cccc(C(=O)N(C)C)c2O)c(=O)c1=O)C1(C)COC1` (stereo not shown) [Example 37b, 2-Hydroxy-N,N-dimethyl-3-(2-{[(3-methylfuran-2-yl)-(3-methyloxetan-3-yl)methyl]amino}-3,4-dioxocyclobut-1-enylamino)benzamide], for which the IC50 in data set [1] was determined as 7.69 µM; in data set [2], 0.207 µM. Taken in the same sequence, the figures for `CN(C)C(=O)c1cccc(Nc2c(NC(c3ccco3)C3(C)COC3)c(=O)c2=O)c1O` (stereo not shown) [Example 36, 3-(2-{[furan-2-yl-(3-methyloxetan-3-yl)methyl]amino}-3,4-dioxocyclobut-1-enylamino)-2-hydroxy-N,N-dimethylbenzamide] were 1.71 µM and 0.198 µM.

`CCC1(C(Nc2c(Nc3cccc(C(=O)N(C)C)c3O)c(=O)c2=O)c2ccc(C)o2)COC1` (stereo not shown) [Example 3, 3-(2-{[(3-ethyloxetan-3-yl)-(5-methylfuran-2-yl)methyl]amino}-3,4-dioxocyclobut-1-enylamino)-2-hydroxy-N,N-dimethylbenzamide]: the IC50 was 1.15 µM in data set [1] and 0.106 µM in data set [2]. In data set [2], `Cc1ccc(C(Nc2c(Nc3cccc(C#N)c3O)c(=O)c2=O)C2(C)COC2)o1` (stereo not shown) [Example 42, 2-hydroxy-3-(2-{[(5-methylfuran-2-yl)-(3-methyloxetan-3-yl)methyl]amino}-3,4-dioxocyclobut-1-enylamino)benzonitrile] showed an IC50 of 0.311 µM. In the case of `COc1ccc(C(Nc2c(Nc3cccc(C(=O)N(C)C)c3O)c(=O)c2=O)C2(C)COC2)cc1` (stereo not shown) [Example 29, 3-(2-{[(3-methyloxetan-3-yl)-(4-methoxyphenyl)methyl]amino}-3,4-dioxocyclobut-1-enylamino)-2-hydroxy-N,N-dimethylbenzamide], the IC50 in data set [2] was found to be 0.433 µM. In the case of `Cc1ccc([C@H](Nc2c(Nc3ccc(Cl)c(C(=O)N(C)C)c3O)c(=O)c2=O)C2(C)COC2)o1` [Example 52, 6-chloro-2-hydroxy-N,N-dimethyl-3-(2-{[(R)-(5-methylfuran-2-yl)-(3-methyloxetan-3-yl)methyl]amino}-3,4-dioxocyclobut-1-enylamino)benzamide], the figures for the IC50 in data set [1] and in data set [2] were 0.897 µM and 0.373 µM, respectively. `Cc1ccc(C(Nc2c(Nc3cccc(C(=O)N4CCCC4)c3O)c(=O)c2=O)C2(C)COC2)o1` (stereo not shown) [Example 14, 3-[2-hydroxy-3-(pyrrolidine-1-carbonyl)phenylamino]-4-{[(5-methylfuran-2-yl)-(3-methyloxetan-3-yl)methyl]amino}cyclobut-3-ene-1,2-dione]: the IC50 was found to be 1.3 µM in data set [1] and 0.262 µM in data set [2]. Take `Cc1ccc(C(Nc2c(Nc3ccc(Cl)nc3O)c(=O)c2=O)C2(C)COC2)o1` (stereo not shown) [Example 40, 3-(6-chloro-2-hydroxypyridin-3-ylamino)-4-{[(5-methylfuran-2-yl)-(3-methyloxetan-3-yl)methyl]amino}cyclobut-3-ene-1,2-dione]: the concentration for half-maximal inhibition (IC50) in data set [1] amounted to 5.23 µM; in data set [2] it was 0.502 µM. As to `CN(C)C(=O)c1cccc(Nc2c(NC(c3ccc4c(c3)OCO4)C3(C)COC3)c(=O)c2=O)c1O` (stereo not shown) [Example 30, 3-(2-{[benzo[1,3]dioxol-5-yl-(3-methyloxetan-3-yl)methyl]amino}-3,4-dioxocyclobut-1-enylamino)-2-hydroxy-N,N-dimethylbenzamide], the IC50 in data set [1] came out at 2.25 µM; in data set [2], 0.349 µM. Regarding `Cc1ccc([C@H](Nc2c(Nc3cccc(C(=O)N(C)CC(F)(F)F)c3O)c(=O)c2=O)C2(C)COC2)o1` [Example 48, 2-hydroxy-N-methyl-3-(2-{[(R)-(5-methylfuran-2-yl)-(3-methyloxetan-3-yl)methyl]amino}-3,4-dioxocyclobut-1-enylamino)-N-(2,2,2-trifluoroethyl)benzamide], the results for the IC50 in data set [1] and in data set [2] were 0.566 µM and 0.026 µM, respectively.

Take `Cc1ccc(C(Nc2c(Nc3cccnc3O)c(=O)c2=O)C2(C)COC2)o1` (stereo not shown) [Example 20, 3-(2-hydroxypyridin-3-ylamino)-4-{[(5-methylfuran-2-yl)-(3-methyloxetan-3-yl)methyl]amino}-cyclobut-3-ene-1,2-dione]: the values for the IC50 in data set [1] and in data set [2] were 6.62 µM and 0.335 µM, respectively. Take `COC(=O)CN(C)C(=O)c1cccc(Nc2c(N[C@@H](c3ccc(C)o3)C3(C)COC3)c(=O)c2=O)c1O` [Example 51, methyl {[2-hydroxy-3-(2-{[(R)-(5-methylfuran-2-yl)-(3-methyloxetan-3-yl)methyl]amino}-3,4-dioxocyclobut-1-enylamino)benzoyl]methylamino}acetate]: the IC50 in data set [1] amounted to 0.65 µM; in data set [2], 0.072 µM. With `Cc1ccc(C(Nc2c(Nc3cccc(C(=O)N4CC[C@H](O)C4)c3O)c(=O)c2=O)C2(C)COC2)o1` (stereo partly drawn) [Example 6, 3-[2-hydroxy-3-((S)-3-hydroxypyrrolidine-1-carbonyl)phenylamino]-4-{[(5-methylfuran-2-yl)-(3-methyloxetan-3-yl)methyl]amino}cyclobut-3-ene-1,2-dione], the IC50 was 2.84 µM in data set [1] and 1.09 µM in data set [2].
